The values below come from patent publication US10898561B2, “Peptides and combination of peptides for use in immunotherapy against pancreatic cancer and other cancers” (IMMATICS BIOTECHNOLOGIES GMBH, priority 2015, dated 2021).

In one assay the test system is CD8+ T cells. Put plainly: In vitro T-cell priming assay with aAPCs loaded with peptide/MHC complexes and anti-CD28 antibody, multimer readout. The class given is cell-based, human. As to conditions: in vitro immunogenicity, healthy HLA-A*02 donors; for donors: positive donors; for wells: positive wells. The source says: In order to obtain information regarding the immunogenicity of the TUMAPs of the present invention, the inventors performed investigations using an in vitro T-cell priming assay based on repeated stimulations of CD8+ T cells with artificial antigen presenting cells (aAPCs) loaded with peptide/MHC complexes and anti-CD28 antibody.
In order to perform in vitro stimulations by artificial antigen presenting cells loaded with peptide-MHC complex (pMHC) and anti-CD28 antibody, the inventors first isolated CD8+ T cells from fresh HLA-A*02 leukapheresis products via positive selection using CD8 microbeads (Miltenyi Biotec, Bergisch-Gladbach, Germany) of healthy donors obtained from the University clinics Mannheim, Germany, after informed consent.
PBMCs and isolated CD8+ lymphocytes were incubated in T-cell medium (TCM) until use consisting of RPMI-Glutamax (Invitrogen, Karlsruhe, Germany) supplemented with 10% heat inactivated human AB serum (PAN-Biotech, Aidenbach, Germany), 100 U/ml Penicillin/100 μg/ml Streptomycin (Cambrex, Cologne, Germany), 1 mM sodium pyruvate (CC Pro, Oberdorla, Germany), 20 μg/ml Gentamycin (Cambrex). 2.5 ng/ml IL-7 (PromoCell, Heidelberg, Germany) and 10 U/ml IL-2 (Novartis Pharma, Nürnberg, Germany) were also added to the TCM at this step.
Generation of pMHC/anti-CD28 coated beads, T-cell stimulations and readout was performed in a highly defined in vitro system using four different pMHC molecules per stimulation condition and 8 different pMHC molecules per readout condition.
The purified co-stimulatory mouse IgG2a anti human CD28 Ab 9.3 (Jung et al., 1987) was chemically biotinylated using Sulfo-N-hydroxysuccinimidobiotin as recommended by the manufacturer (Perbio, Bonn, Germany). Beads used were 5.6 μm diameter streptavidin coated polystyrene particles (Bangs Laboratories, Ill., USA).
800.000 beads/200 μl were coated in 96-well plates in the presence of 4×12.5 ng different biotin-pMHC, washed and 600 ng biotin anti-CD28 were added subsequently in a volume of 200 μl. Stimulations were initiated in 96-well plates by co-incubating 1×10^6 CD8+ T cells with 2×10^6 washed coated beads in 200 μl TCM supplemented with 5 ng/ml IL-12 (PromoCell) for 3 days at 37° C. Half of the medium was then exchanged by fresh TCM supplemented with 80 U/ml IL-2 and incubating was continued for 4 days at 37° C. This stimulation cycle was performed for a total of three times. For the pMHC multimer readout using 8 different pMHC molecules per condition, a two-dimensional combinatorial coding approach was used as previously described (Andersen et al., 2012) with minor modifications encompassing coupling to 5 different fluorochromes. Finally, multimeric analyses were performed by staining the cells with Live/dead near IR dye (Invitrogen, Karlsruhe, Germany), CD8-FITC antibody clone SK1 (BD, Heidelberg, Germany) and fluorescent pMHC multimers. For analysis, a BD LSRII SORP cytometer equipped with appropriate lasers and filters was used. Peptide specific cells were calculated as percentage of total CD8+ cells. Evaluation of multimeric analysis was done using the FlowJo software (Tree Star, Oregon, USA). In vitro priming of specific multimer+CD8+ lymphocytes was detected by comparing to negative control stimulations.

A further assay concerns the target HLA-A*02:01 (Homo sapiens, UniProt P04439, D140Y/D185E/D98H/E176V/E277Q/G131W/G231S/I119V/I121R/I166T/I218V/L300P/L318F/N151K/N90K/P208A/P217A/Q86G/Q94H/R138H/R169H/T345S). Put plainly: MHC binding assay: UV-ligand exchange with beta2m ELISA. The conditions noted are these: MHC class I binding score, yield of UV-ligand exchange. The source says: Candidate peptides for T cell based therapies according to the present invention were further tested for their MHC binding capacity (affinity). The individual peptide-MHC complexes were produced by UV-ligand exchange, where a UV-sensitive peptide is cleaved upon UV-irradiation, and exchanged with the peptide of interest as analyzed. Only peptide candidates that can effectively bind and stabilize the peptide-receptive MHC molecules prevent dissociation of the MHC complexes. To determine the yield of the exchange reaction, an ELISA was performed based on the detection of the light chain (β2m) of stabilized MHC complexes. The assay was performed as generally described in Rodenko et al. (Rodenko et al., 2006).
96 well MAXISorp plates (NUNC) were coated over night with 2 ug/ml streptavidin in PBS at room temperature, washed 4× and blocked for 1 h at 37° C. in 2% BSA containing blocking buffer. Refolded HLA-A*02:01/MLA-001 monomers served as standards, covering the range of 15-500 ng/ml. Peptide-MHC monomers of the UV-exchange reaction were diluted 100 fold in blocking buffer. Samples were incubated for 1 h at 37° C., washed four times, incubated with 2 ug/ml HRP conjugated anti-β2m for 1 h at 37° C., washed again and detected with TMB solution that is stopped with […]. Absorption was measured at 450 nm. Candidate peptides that show a high exchange yield (preferably higher than 50%, most preferred higher than 75%) are generally preferred for a generation and production of antibodies or fragments thereof, and/or T cell receptors or fragments thereof, as they show sufficient avidity to the MHC molecules and prevent dissociation of the MHC complexes.

For “23 (SLSAFTLFL; listed as Homo sapiens) [compound 23]”, the “Wells positive [%]” value in the assay with CD8+ T cells is on record as “++ (20%-49% = ++)”. The Peptide exchange entry with HLA-A*02:01 was “++ (20%-49% = ++)”.

Consider “21 (HLMDQPLSV; listed as Homo sapiens) [compound 21]”, for which the “Wells positive [%]” value in the assay with CD8+ T cells is “+ (<20% = +)”. The Peptide exchange result in the assay with HLA-A*02:01 is listed as “++ (20%-49% = ++)”.

As to “50 (ALAAILTRL; listed as Homo sapiens) [compound 50]”, in the assay on CD8+ T cells, the “Wells positive [%]” value was “+++ (50%-69% = +++)”. Further, in the assay with HLA-A*02:01, the Peptide exchange result was “+++ (50%-75% = +++)”.

Turning to “69 (VMAPFTMTI; listed as Homo sapiens) [compound 69]”, in the assay on CD8+ T cells, the donors entry was “++++ (>=70% = ++++)” and the wells result was “++ (20%-49% = ++)”.

Regarding “20 (RLAGDGVGAV; listed as Homo sapiens) [compound 20]”, the “Wells positive [%]” value in the assay on CD8+ T cells is given as “++++ (>=70% = ++++)”. Also, the Peptide exchange result with HLA-A*02:01 is reported as “++ (20%-49% = ++)”.

For the substance “34 (MLMPVHFLL; listed as Homo sapiens) [compound 34]”, the “Wells positive [%]” value with CD8+ T cells is reported as “+ (<20% = +)”. Also, the Peptide exchange result in the assay with HLA-A*02:01 is “++++ (>=75% = ++++)”.

As for “37 (GLLKKINSV; listed as Homo sapiens) [compound 37]”, the “Wells positive [%]” value with CD8+ T cells is given as “+ (<20% = +)”. Besides, the Peptide exchange entry with HLA-A*02:01 is given as “++ (20%-49% = ++)”.

For “87 (LLLGSPAAA; listed as Homo sapiens) [compound 87]”, in the assay on CD8+ T cells, the donors result is “+++ (50%-69% = +++)” and the wells entry is on record as “+ (<20% = +)”.

In the case of “3 (ALLTFMEQV; listed as Homo sapiens) [compound 3]”, the “Wells positive [%]” value in the assay on CD8+ T cells is “++ (20%-49% = ++)”. Further, the Peptide exchange result with HLA-A*02:01 was “+++ (50%-75% = +++)”.
